# Measurements from PMC9401491, “The Novel Nucleoside Analogue ProTide NUC-7738 Overcomes Cancer Resistance Mechanisms In Vitro and in a First-In-Human Phase I Clinical Trial” (Clinical Cancer Research, 2021).
# Read-outs that look alike come from different tables or passages of the source.
# Assays:
# cancer cell lines = test: IC50 across a wide set of cancer cell lines; format: cell-based; settings: mean across a wide set of cancer cell lines; read-out: mean IC50
# Procedure: (§1) Cells (10^4) were seeded into 96-well plates and then treated with NUC-7738 (lot 5132/E00393/119) or 3′-dA (cordycepin, catalog no. C3394, lot 067M4182, Sigma) for 48 hours. One and a half milligrams per milliliter MTT (catalog no. M6494, Invitrogen) in a 1:1 ratio was added to cell culture media. After a 2-hour incubation at 37°C, media was removed and 70 μl of isopropanol was added. Optical densities at 570 nm were measured using POLARstar Omega plate reader. Readouts were normalized and IC50 values were calculated using a nonlinear regression model in Graphpad prism (v8.3.0). Each biological replicate (at least 3) was performed in 4 technical replicates to calculate the average IC50 value. To measure apoptosis, the Guava NexinReagent (Luminex Corp.) was used following manufacturer's instructions. Fluorescence staining was measured with an automated 96-well Guava easyCyte Flow Cytometer (Luminex Corp.).
# AGS = test: MTT cell viability, AGS; format: cell-based; settings: Homo sapiens, 48 hours, mean (±SEM), read-out: IC50
# Procedure: as §1
# A498 = test: MTT cell viability, A498; format: cell-based; settings: Homo sapiens; A498, 48 hours; mean (±SEM); read-out: IC50
# Procedure: as §1
# UO-31 = test: MTT cell viability, UO-31; format: cell-based; settings: Homo sapiens; UO-31, 48 hours; mean (±SEM); read-out: IC50
# Procedure: as §1
# 501MEL = test: MTT cell viability, 501MEL; format: cell-based; settings: 501MEL, 48 hours; mean (±SEM); read-out: IC50
# Procedure: as §1
# NCI-786 = test: MTT cell viability, NCI-786; format: cell-based; settings: NCI-786, 48 hours; mean (±SEM); read-out: IC50
# Procedure: as §1
# ACHN = test: MTT cell viability, ACHN; format: cell-based; settings: Homo sapiens, 48 hours, mean (±SEM), read-out: IC50
# Procedure: as §1
# HAP1 cells [1] = test: MTT cell viability, HAP1 cells; format: cell-based; settings: Homo sapiens
# Procedure: as §1
# HAP1 cells [2] = test: HAP1 viability with ADA, hENT1 or ADK inhibitors; format: cell-based, human; settings: HAP1, EHNA, NBTI, A134974
# Procedure: as §1
# To assess whether NUC-7738 was resistant to ADA and could bypass ADK and hENT1 (SLC29A1), cell viability was measured after treatment with their specific and corresponding protein inhibitors: erythro-9-(2-Hydroxy-3-nonyl) adenine hydrochloride (EHNA), A134974, and S-(4-nitrobenzyl)-6-thioinosine (NBTI), respectively ([16, 17, 34, 35]).
# SK-OV3 = test: MTT cell viability, SK-OV3; format: cell-based; settings: Homo sapiens, SK-OV-3; SK-OV3, 48 hours; 2 biological replicates; read-out: IC50
# Procedure: as §1
# Tera-1 = test: MTT cell viability, Tera-1; format: cell-based; settings: Tera-1, 48 hours; mean (±SEM); read-out: IC50
# Procedure: as §1
# [3] = tested on: NUDT2 knockout HAP1 cells; test: Sensitivity of NUDT2 CRISPR/Cas9 knockout HAP1 cells; format: cell-based, human; settings: HAP1 NUDT2 knockout vs wildtype
# Procedure: Cells were transfected with stealth siRNA (catalog no. HSS104782, catalog no. HSS104784, catalog no. HSS179235; ThermoFisher) targeting HINT-1 using Lipofectamine RNAiMAX (Invitrogen) following the manufacturer's protocol. At 48 hours posttransfection, cells were treated and cell viability was measured 96 hours posttransfection as described above. Samples for Western blot analysis were harvested 48 hours posttransfection. For gene-depletion experiments, approximately 4 × 10^5 HAP1 cells were seeded per well in a 6-well plate and grown to approximately 50% confluency. After 24 hours, cells were transfected with lentiCRISPR v2 plasmid (GenScript) containing a guide RNA (gRNA) targeting gene of interest using Turbofectin (catalog no. TF81001, OriGene) according to manufacturer's instruction. The following sequences were used: HINT-1 CRISPR gRNA 2 ([…]) and NUDT2 CRISPR gRNA 2 ([…]). At 24 hours posttransfection, positively transfected cells were selected using […] puromycin for 72 hours. After selection, surviving colonies were expanded and used for downstream analysis. For clonal selection, clones were selected using limited dilution and expanded into a 6-well plate for Western blot screening.
# [4] = set-up: method as in PMID 20302371; settings: cited from earlier work
# CAKI-1 = test: MTT cell viability, CAKI-1; format: cell-based; settings: Homo sapiens; CAKI-1, 48 hours; mean (±SEM); read-out: IC50
# Procedure: as §1
# [5] = tested on: Gastric or cervical cancer cells; test: Apoptosis by cleaved PARP Western blot; format: cell-based; settings: 50 and 100 μmol/L, 24 hours
# Procedure: as §1
# Cells were harvested and lyzed using RIPA lysis and extraction buffer (Thermo Scientific) following manufacturer's protocol. Twenty to 30 μg of total protein lysates was loaded on Mini-PROTEAN TGX precast gels (Bio-Rad). Separated proteins were transferred to a polyvinylidene difluoride (PVDF) membrane using Trans-Blot Turbo Transfer System (Bio-Rad) followed by incubation with primary and horseradish peroxidase (HRP)–conjugated secondary antibodies [anti-mouse, catalog no. […]
# [6] = NuTide:701 first-in-human phase I study; format: in vivo; settings: human, in vivo
# Procedure: A Safety Study of NUC-7738 in Patients with Advanced Solid Tumours or Lymphoma, ClinicalTrials number: NCT03829254. Approved by Oxford C Ethics Committee ref 18/SC/0628.
# This study is currently ongoing at three centers in the United Kingdom: Edinburgh, Newcastle, and Oxford. As of June 1, 2021, 28 patients with advanced cancers have been enrolled and received escalating doses of 14–900 mg/m^2 (intravenous infusion from 30–120 minutes) once weekly until dose-limiting toxicity or disease progression occurs. Intrapatient dose escalation ensures those starting at lower dose levels of NUC-7738 are continuously moved to higher doses once safety has been established. The most common cancers to be included are immunotherapy-resistant melanoma (n = 8), colorectal cancer (n = 3), and gastric and lung cancer (n = 2 each). […] A posttreatment biopsy was taken from a patient with melanoma and compared with their archived specimen collected prior to enrolling in the clinical trial. […] Transcriptional profiling of the specimens using RNA-seq identified more than 1,069 genes which were at least 2-fold differentially expressed after treatment with NUC-7738 (Fig. 6C and Supplementary Fig. S6A–C).
# [7] = Beagle dog 4-week toxicology and toxicokinetics
# [8] = all doses, both occasions and genders
smiles,measurement,setting,value
"Nc1ncnc2c1ncn2[C@@H]1O[C@H](CO)C[C@H]1O [3′-dA, 3′-deoxyadenosine, reference compound]",IC50,cancer cell lines,138 µM
same,IC50,AGS,460 µM
same,IC50,A498,479 µM
same,IC50,UO-31,385 µM
same,IC50,501MEL,137 µM
same,IC50,NCI-786,181 µM
same,IC50,ACHN,393 µM
same,IC50,"HAP1 cells [1]; HAP1, 48 hours, MTT, mean (±SEM) of 4 biological replicates, read-out: IC50",49.9 µM
same,IC90,"HAP1 cells [1]; HAP1, 48 hours, MTT, mean (±SEM) of 4 biological replicates, read-out: IC90",151 µM
same,IC50,"HAP1 cells [1]; HAP1, as stated in RNA-seq method, read-out: IC50 concentration used for RNA-seq",46 µM
same,IC90,"HAP1 cells [1]; HAP1, as stated in RNA-seq method, read-out: IC90 concentration used for RNA-seq",375 µM
same,"potency upon inhibition of ADA, hENT1 or ADK",HAP1 cells [2],"dependent on ADA, hENT1, and ADK"
same,IC50,SK-OV3,360 µM
same,IC50,Tera-1,200 µM
same,resistance after NUDT2 deletion,[3],Specific resistance
same,half-life in plasma,[4],1.6 min
same,IC50,CAKI-1,291 µM
same,"apoptotic cell death, cleaved PARP-1",[5],induced apoptotic cell death
"Nc1ncnc2c1ncn2[C@@H]1O[C@H](COP(=O)(O)OP(=O)(O)OP(=O)(O)O)C[C@H]1O [3′-dATP, 3′-dA-5′-triphosphate]",intracellular half-life,[6],approximately 50 h
O=c1[nH]cnc2c1ncn2[C@@H]1O[C@H](CO)C[C@H]1O [3′-deoxyinosine],"mean ratio metabolite/parent, AUC 0-t",[7]; [8],1.32
same,"mean ratio metabolite/parent, Cmax",[7]; [8],0.42
same,Tmax,"[7]; both, beagle, plasma, iv",15 min
